Counter-ions that a name gives are not always drawn.

The subject of this assay is histamine induced paw oedema. The assay can be described thus: Histamine induced paw oedema. The class given is in vivo, male Sprague-Dawley rats. Conditions: at 1 mg/kg, intraperitoneally 15 minutes before the anesthetics, rats, paw swelling 20 minutes after histamine. The method, then:
II. Histamine induced paw oedema Values for in vivo inhibition of […] induced oedema for the compounds of the present invention were assessed in rats essentially as described by Amann et al. (Europ. J. Pharmacol. 30 279, 227-231, 1995). In brief 250-300 g male Sprague-Dawley rats were […] pentobarbital sodium, and placed on a 32 degree heated table. Ten minutes later histamine (50 microliter, 3 mg/ml) was injected in the right hind paw and 20 minutes hereafter the paw swelling was determined by water plethysmography (Ugo Basile). Test compounds were administered intraperitoneally at 15 minutes before the anesthetics. |Inhibition of histamine induced oedema at 1 mg/kg

Take `Cl.O=C(O)[C@@H]1CCCN(CCC=C2c3ccccc3OCOc3ccccc32)C1` [Example 2, (R)-1-(3-(12H-Dibenzo[d,g][1,3]dioxocin-12-ylidene)-1-propyl)-3-piperidinecarboxylic acid hydrochloride]: the “% oedema inhibition” value was determined as 52%.

As to `CCOC(=O)[C@@H]1CCCN(CCC=C2c3ccccc3OCOc3ccccc32)C1` [Example 3, (R)-1-(3-(12H-Dibenzo[d,g][1,3]doxocin-12-ylidene)-1-propyl)-3-piperidinecarboxylic acid ethyl ester hydrochloride], the “% oedema inhibition” value came to 33%.
